The values below come from ChEMBL document CHEMBL1135754, “Arylsulfonamidothiazoles as a new class of potential antidiabetic drugs. Discovery of potent and selective inhibitors of the 11beta-hydroxysteroid dehydrogenase type 1” (J Med Chem, 2002).

Active and inactive are the calls of the source. The rule behind the calls is not given here.

In assay [1] the target is 11-beta-hydroxysteroid dehydrogenase type 2 (Mus musculus) (UniProt P51661). As to the kind of experiment: Inhibitory activity against mouse 11 beta hydroxysteroid dehydrogenase type 2 at a concentration of 0.2 mM; NI means no inhibition.
11-beta-hydroxysteroid dehydrogenase type 2 (Mus musculus), sequence (P51661 whole entry, looked up): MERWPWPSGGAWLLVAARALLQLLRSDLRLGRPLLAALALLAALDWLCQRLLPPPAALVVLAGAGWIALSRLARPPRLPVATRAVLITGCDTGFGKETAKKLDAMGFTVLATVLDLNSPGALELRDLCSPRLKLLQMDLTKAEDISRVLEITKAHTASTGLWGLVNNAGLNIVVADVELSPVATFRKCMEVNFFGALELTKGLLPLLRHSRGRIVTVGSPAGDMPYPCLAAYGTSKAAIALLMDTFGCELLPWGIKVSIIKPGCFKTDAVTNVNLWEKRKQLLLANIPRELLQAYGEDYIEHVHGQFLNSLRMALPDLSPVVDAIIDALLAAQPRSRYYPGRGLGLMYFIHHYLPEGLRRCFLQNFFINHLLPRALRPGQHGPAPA
The target in assay [2] is T1, 11-beta-hydroxysteroid dehydrogenase 1 (Mus musculus, UniProt P50172). Kind of assay: In vitro inhibitory activity against mouse 11 beta hydroxysteroid dehydrogenase type 1 using scintillation proximity assay (SPA). (In general: Scintillation proximity formats need no separation of bound from free tracer.)
The target of assay [3] is 11-beta-hydroxysteroid dehydrogenase type 2 (Homo sapiens, UniProt P80365). As to the kind of experiment: Ability to convert [3H]cortisol to the tritium labeled cortisone in the presence of human 11 beta hydroxysteroid dehydrogenase type 2.
11-beta-hydroxysteroid dehydrogenase type 2, sequence (P80365 whole entry, looked up): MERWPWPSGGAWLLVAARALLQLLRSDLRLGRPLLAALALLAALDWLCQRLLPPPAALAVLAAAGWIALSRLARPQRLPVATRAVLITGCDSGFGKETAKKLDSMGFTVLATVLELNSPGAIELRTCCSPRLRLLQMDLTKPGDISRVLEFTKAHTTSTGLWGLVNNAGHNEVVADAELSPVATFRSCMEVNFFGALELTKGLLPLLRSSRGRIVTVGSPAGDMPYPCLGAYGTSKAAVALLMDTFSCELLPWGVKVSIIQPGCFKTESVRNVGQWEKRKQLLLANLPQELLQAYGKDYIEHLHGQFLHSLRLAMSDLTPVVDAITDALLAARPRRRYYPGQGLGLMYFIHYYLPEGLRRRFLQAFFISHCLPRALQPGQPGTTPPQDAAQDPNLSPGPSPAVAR
The target of assay [4] is T1, 11-beta-hydroxysteroid dehydrogenase 1. As to the kind of experiment: In vitro inhibitory activity against mouse 11 beta hydroxysteroid dehydrogenase type 1 using scintillation proximity assay (SPA).

On to `Cc1c(Cl)cccc1S(=O)(=O)Nc1nc(CC(=O)N2CCN(C)CC2)cs1`, for which the NI result in assay [1] is “inactive”. Also, the IC50 in assay [2] is […]; in assay [3], above 10000 nM.

`CCN(CC)C(=O)Cc1csc(NS(=O)(=O)c2cccc(Cl)c2C)n1`: the results for the IC50 in assay [4] and in assay [3] were […] and above 10000 nM, respectively.

For orientation: IC50 means the concentration that gives 50% inhibition.
